The results in this text go back to ChEMBL document CHEMBL1148830, “Discovery and investigation of antiproliferative and apoptosis-inducing properties of new heterocyclic podophyllotoxin analogues accessible by a one-step multicomponent synthesis” (2007).

Calls of active or inactive are those of the source. No cut-off for these calls is given here.

For assay [1], the system named is HeLa. The assay can be described thus: Antiproliferative activity against HeLa cells assessed as cell viability at 5 uM after 48 hrs by MTT assay relative to control. Format: functional. The note with it: Homo sapiens, read-out: Activity. Background: Formazan colour is commonly taken as a measure of viable cells.
Assay [2] deals with Jurkat. The experiment in a line: Antiproliferative activity against human Jurkat cells assessed as cell viability at 5 uM after 48 hrs by MTT assay. Format: functional. The conditions noted are these: read-out: Activity.
The next assay concerns Lymphocyte. The assay can be described thus: Induction of apoptosis in human whole blood lymphocytes after 24 hrs by flow cytometric Annexin-V/propidium iodide assay. The class given is functional, cell-based. In general terms: A flow cytometer gives signals particle by particle.
Assay [3] has as its system Jurkat. The experiment in a line: Increase in caspase 3 activation in Jurkat cells at 5 uM. Format: functional, Homo sapiens.
Assay [4] relates to Jurkat. The experiment in a line: Induction of apoptosis in Jurkat cells assessed as cell viability at 5 uM after 48 hrs by flow cytometry Annexin-V/propidium iodide assay. Format: functional. The note with it: Homo sapiens, read-out: Activity.
Assay [5] can be described thus: Antiproliferative activity against human MCF7/AZ cells assessed as cell viability at 5 uM after 48 hrs by MTT assay relative to control. The class given is functional. The conditions noted are these: read-out: Activity.
Assay [6] concerns HeLa. The experiment in a line: Growth inhibition of HeLa cells after 48 hrs by MTT assay. The class given is functional. The conditions noted are these: Homo sapiens.
The subject of assay [7] is Jurkat. The assay can be described thus: Induction of apoptosis in Jurkat cells after 24 hrs by flow cytometric Annexin-V/propidium iodide assay. The class given is functional, cell-based. The note with it: Homo sapiens.
Assay [8] deals with Jurkat. The assay can be described thus: Effect on apoptosis in Jurkat cells assessed as cleavage of PARP at 5 uM. The class given is functional, cell-based. The conditions noted are these: Homo sapiens.

`CCOc1c(Br)cc(C2C3=C(COC3=O)Nc3[nH]nc(C)c32)cc1OC` (stereo not given): the viability at 5 µM came out at 52% with HeLa [1], 28% in the assay with Jurkat [2], 49% with Jurkat [4] and 49% in [5]. Also, in the assay on Lymphocyte, the outcome was inactive. In the assay with Jurkat [3], this molecule yielded a Fold change of 3. In the assay on HeLa [6], it took 5 µM to inhibit growth by half (GI50).

`Cc1n[nH]c2c1C(c1ccncc1)C1=C(COC1=O)N2` (stereo not given): the viability at 5 µM with HeLa [1] was 94%; in the assay with Jurkat [2], 92%; in the assay on Jurkat [4] it was 4%; in assay [5] it was 100%.

With `COc1ccc(C2C3=C(COC3=O)Nc3[nH]nc(C)c32)cc1` (stereo not given), the viability at 5 µM with HeLa [1] worked out at 73%; in the assay on Jurkat [2] it was 94%; in the assay on Jurkat [4], 11%; in assay [5] it was 82%.

For the molecule `Cc1n[nH]c2c1C(c1cccc(F)c1)C1=C(COC1=O)N2` (stereo not given), the viability at 5 µM in the assay with HeLa [1] stood at 99%; in the assay with Jurkat [2], 84%; with Jurkat [4] it was 28%; in assay [5], 76%.

As for `C=C(C)[C@@H]1CC=C(C2C3=C(COC3=O)Nc3[nH]nc(C)c32)CC1` (stereo not given in full), the viability at 5 µM was determined as 95% in the assay on HeLa [1], 89% with Jurkat [2], 14% with Jurkat [4] and 91% in assay [5].

Turning to `Cc1n[nH]c2c1C(c1ccccc1[N+](=O)[O-])C1=C(COC1=O)N2` (stereo not given), the viability at 5 µM was determined as 71% in the assay on HeLa [1], 64% in the assay with Jurkat [2], 6% in the assay on Jurkat [4] and 99% in assay [5].

Consider `Cc1n[nH]c2c1C(c1ccsc1)C1=C(COC1=O)N2` (stereo not given), for which the viability at 5 µM with HeLa [1] came to 98%; in the assay with Jurkat [2], 82%; in the assay on Jurkat [4] it was 6%; in assay [5] it was 100%.

`Cc1n[nH]c2c1C(c1cccs1)C1=C(COC1=O)N2` (stereo not given): the viability at 5 µM in the assay with HeLa [1] is 82%; in the assay with Jurkat [2], 74%; with Jurkat [4] it was 18%; in assay [5], 98%.

As to `COc1cc(C2C3=C(COC3=O)Nc3c2c(C)nn3C)cc(OC)c1OC` (stereo not given), the viability at 5 µM was found to be 55% in the assay with HeLa [1], 79% in the assay with Jurkat [2], 5% in the assay on Jurkat [4] and 98% in assay [5].

As to `Cc1nc2ccccc2nc1C1C2=C(COC2=O)Nc2[nH]nc(C)c21` (stereo not given), the viability at 5 µM with HeLa [1] is 72%; in the assay on Jurkat [2], 97%; in the assay on Jurkat [4], 11%; in assay [5], 100%.

As to `Cc1n[nH]c2c1C(c1cc(Br)c(O)c(Br)c1)C1=C(COC1=O)N2` (stereo not given), the viability at 5 µM worked out at 58% in the assay with HeLa [1], 58% in the assay with Jurkat [2], 53% in the assay on Jurkat [4] and 60% in assay [5]. Moreover, the outcome with Lymphocyte was inactive. The same molecule came in with a Fold change in the assay with Jurkat [3] of 3. Also, the GI50 (commonly the concentration that inhibits growth by half) in the assay on HeLa [6] was 8 µM.

Turning to `COc1cc(C2C3=C(COC3=O)Nc3cc4c(cc32)OCO4)cc(OC)c1OC` (stereo not given), the viability at 5 µM in the assay on HeLa [1] was determined as 54%; with Jurkat [2], 54%; in the assay with Jurkat [4], 55%; in assay [5] it was 52%. The same molecule showed a GI50 with HeLa [6] of 6 µM.

As for `Cc1n[nH]c2c1C(c1cccc(Br)c1)C1=C(COC1=O)N2` (stereo not given), the viability at 5 µM came out at 51% in the assay on HeLa [1], 68% in the assay with Jurkat [2], 58% with Jurkat [4] and 63% in assay [5]. The result with Lymphocyte was inactive. The same molecule returned a Fold change in the assay on Jurkat [3] of 3. Also, the result in the assay with Jurkat [7] was Active. Also, the 50% growth inhibitory concentration (GI50) with HeLa [6] turned out to be 5 µM.

For the molecule `COc1cc(C2C3=C(COC3=O)Nc3c2c(C)nn3C(C)C)cc(OC)c1OC` (stereo not given), the viability at 5 µM in the assay with HeLa [1] stood at 83%; with Jurkat [2], 77%; in the assay with Jurkat [4], 4%; in assay [5], 99%.

Take `Cc1n[nH]c2c1C(c1ccc(OC(F)(F)F)cc1)C1=C(COC1=O)N2` (stereo not given): the viability at 5 µM amounted to 97% with HeLa [1], 97% in the assay on Jurkat [2], 9% in the assay on Jurkat [4] and 84% in assay [5].

`Cc1n[nH]c2c1C(c1c(C)nc3sccn13)C1=C(COC1=O)N2` (stereo not given): the viability at 5 µM amounted to 84% in the assay on HeLa [1], 85% in the assay on Jurkat [2], 7% in the assay with Jurkat [4] and 100% in assay [5]. The result with Jurkat [8] was inactive.

For `COc1cc2c(cc1OC)C(c1cc(OC)c(OC)c(OC)c1)C1=C(O)OCC1=N2` (stereo not given), the viability at 5 µM is 53% in the assay with HeLa [1], 35% in the assay with Jurkat [2], 49% in the assay on Jurkat [4] and 58% in assay [5]. Growth with HeLa [6] was halved (GI50) at 6 µM.

Regarding `COc1cc(C2C3=C(COC3=O)Nc3[nH]nc(-c4ccc(Br)cc4)c32)cc(OC)c1OC` (stereo not given), the viability at 5 µM was determined as 67% with HeLa [1], 78% with Jurkat [2], 5% in the assay with Jurkat [4] and 98% in assay [5].

As to `Cc1n[nH]c2c1C(c1cccc(Cl)c1)C1=C(COC1=O)N2` (stereo not given), the viability at 5 µM in the assay with HeLa [1] was found to be 43%; with Jurkat [2], 76%; in the assay on Jurkat [4], 28%; in assay [5], 54%. For the same molecule, the Fold change with Jurkat [3] came to 3. In addition, the GI50 with HeLa [6] was determined as 10 µM.

In the case of `COc1cc2c(c(OC)c1OC)-c1ccc(OC)c(=O)cc1[C@@H](NC(C)=O)CC2`, the outcome in the assay with Jurkat [3] (Homo sapiens) was Active.

On to `Cc1n[nH]c2c1C(c1ccc(N(C)C)c(Br)c1)C1=C(COC1=O)N2` (stereo not given), for which the viability at 5 µM in the assay on HeLa [1] worked out at 55%; in the assay on Jurkat [2], 34%; with Jurkat [4], 41%; in assay [5] it was 59%. In the assay on Lymphocyte, the result was inactive. In addition, the Fold change in the assay with Jurkat [3] is on record as 3. The molecule further registered a GI50 in the assay with HeLa [6] of 6 µM.

Consider `COc1cc(C2C3=C(COC3=O)Nc3[nH]nc(C)c32)cc([N+](=O)[O-])c1O` (stereo not given), for which the viability at 5 µM in the assay on HeLa [1] is 78%; in the assay with Jurkat [2], 90%; in the assay on Jurkat [4], 5%; in assay [5], 89%.

Turning to `Cc1n[nH]c2c1C(c1c(C)nn(-c3ccccc3)c1Cl)C1=C(COC1=O)N2` (stereo not given), the viability at 5 µM in the assay with HeLa [1] worked out at 58%; in the assay on Jurkat [2], 94%; with Jurkat [4], 6%; in [5] it was 100%.

For the molecule `Cc1n[nH]c2c1C(C)C1=C(COC1=O)N2` (stereo not given), the viability at 5 µM in the assay on HeLa [1] came to 70%; in the assay on Jurkat [2] it was 78%; in the assay with Jurkat [4], 5%; in assay [5], 97%.

On to `CSc1ccc(C2C3=C(COC3=O)Nc3[nH]nc(C)c32)cc1` (stereo not given), for which the viability at 5 µM with HeLa [1] stood at 45%; with Jurkat [2], 87%; in the assay on Jurkat [4], 14%; in assay [5] it was 95%.

For the molecule `COc1cc2c(c(OC)c1)C(c1cc(OC)c(OC)c(OC)c1)C1=C(COC1=O)N2` (stereo not given), the viability at 5 µM in the assay with HeLa [1] stood at 55%; in the assay on Jurkat [2], 55%; with Jurkat [4], 55%; in [5] it was 43%.

In the case of `COc1cc(C2C3=C(COC3=O)Nc3[nH]nc(C)c32)cc(Br)c1OC` (stereo not given), the viability at 5 µM worked out at 16% in the assay with HeLa [1], 29% with Jurkat [2], 56% in the assay on Jurkat [4] and 47% in assay [5]. In addition, the result with Lymphocyte was inactive. Also, the Fold change with Jurkat [3] came out at 3. In the assay on HeLa [6], this molecule displayed a GI50 of 0.75 µM.

As for `COc1cc(C2C3=C(COC3=O)Nc3c2c(C)nn3-c2ccc(C)cc2)cc(OC)c1OC` (stereo not given), the viability at 5 µM in the assay with HeLa [1] was 77%; with Jurkat [2], 77%; in the assay on Jurkat [4] it was 23%; in [5], 71%.

In the case of `Cc1n[nH]c2c1C(c1cccnc1)C1=C(COC1=O)N2` (stereo not given), the viability at 5 µM in the assay on HeLa [1] is 69%; in the assay on Jurkat [2] it was 88%; with Jurkat [4], 11%; in [5], 96%.

For `COc1cc(C2C3=C(COC3=O)Nc3[nH]nc(C)c32)cc(Br)c1OC(C)=O` (stereo not given), the viability at 5 µM in the assay with HeLa [1] amounted to 47%; in the assay with Jurkat [2], 36%; in the assay on Jurkat [4], 58%; in assay [5] it was 46%. Besides, the result in the assay with Lymphocyte was inactive. Also, in the assay with Jurkat [3], the Fold change was 3. The GI50 in the assay on HeLa [6] was 4 µM.

Take `Cc1n[nH]c2c1C(c1ccccc1)C1=C(COC1=O)N2` (stereo not given): the viability at 5 µM was 74% in the assay on HeLa [1], 87% with Jurkat [2], 10% in the assay on Jurkat [4] and 84% in [5].

As to `Cc1n[nH]c2c1C(c1ccc(Br)cc1)C1=C(COC1=O)N2` (stereo not given), the viability at 5 µM in the assay on HeLa [1] stood at 62%; in the assay with Jurkat [2] it was 90%; in the assay with Jurkat [4] it was 10%; in [5], 92%.

Consider `COc1ccc(C2C3=C(COC3=O)Nc3[nH]nc(C)c32)cc1OC` (stereo not given), for which the viability at 5 µM was determined as 73% with HeLa [1], 88% with Jurkat [2], 5% with Jurkat [4] and 95% in assay [5].

Turning to `Cc1n[nH]c2c1C(c1ccccc1Br)C1=C(COC1=O)N2` (stereo not given), the viability at 5 µM in the assay with HeLa [1] was 57%; in the assay with Jurkat [2] it was 90%; in the assay on Jurkat [4] it was 8%; in [5], 100%.

For `COc1cc(C2C3=C(COC3=O)Nc3c2c(-c2ccc(Br)cc2)nn3-c2ccccc2)cc(OC)c1OC` (stereo not given), the viability at 5 µM in the assay on HeLa [1] turned out to be 73%; with Jurkat [2], 99%; with Jurkat [4], 2%; in assay [5] it was 90%.

With `Cc1n[nH]c2c1C(c1ccc(Cl)c(Cl)c1)C1=C(COC1=O)N2` (stereo not given), the viability at 5 µM amounted to 88% with HeLa [1], 71% in the assay on Jurkat [2], 33% in the assay with Jurkat [4] and 56% in assay [5].
